From ChEMBL document CHEMBL3400105, “Discovery of novel pyrazolopyrimidinone analogs as potent inhibitors of phosphodiesterase type-5” (Bioorg Med Chem, 2015)
≈ marks a conversion by molar mass, not a printed value. Blank lines part the entries; values can stand above or below the molecule they belong to.

Assays:
[1] = target: T1, cGMP-specific 3',5'-cyclic phosphodiesterase (Homo sapiens, UniProt O76074)
[2] = AUC (0 to time) in Balbc mouse at 1 mg/kg, ip; assay type: ADME, organism-based; parameters: dose 1 mg/kg, route intraperitoneal; conditions: plasma
[3] = AUC (0 to time) in Swiss mouse at 10 mg/kg, po; assay type: ADME, organism-based; parameters: dose 10 mg/kg, route oral; conditions: plasma
[4] = AUC (0 to infinity) in Balbc mouse at 1 mg/kg, iv; assay type: ADME, organism-based; parameters: time infinity, dose 1 mg/kg, route intravenous; conditions: plasma
[5] = AUC (0 to infinity) in Balbc mouse at 1 mg/kg, ip; assay type: ADME, organism-based; parameters: time infinity, dose 1 mg/kg, route intraperitoneal; conditions: plasma
[6] = AUC (0 to infinity) in Swiss mouse at 10 mg/kg, po; assay type: ADME, organism-based; parameters: time infinity, dose 10 mg/kg, route oral; conditions: plasma
[7] = Apparent oral clearance in Balbc mouse at 1 mg/kg, iv; assay type: ADME, organism-based; parameters: dose 1 mg/kg, route oral; conditions: in vivo
[8] = Apparent oral clearance in Swiss mouse at 10 mg/kg, po; assay type: ADME, organism-based; parameters: dose 10 mg/kg, route oral; conditions: in vivo
[9] = Apparent oral volume of distribution in Balbc mouse at 1 mg/kg, iv; assay type: ADME, organism-based; parameters: dose 1 mg/kg, route oral; conditions: in vivo
[10] = Apparent oral volume of distribution in Swiss mouse at 10 mg/kg, po; assay type: ADME, organism-based; parameters: dose 10 mg/kg, route oral; conditions: in vivo
[11] = target: CYP3A4 (Homo sapiens, UniProt P08684); assay: Inhibition of CYP3A4 (unknown origin) at 10 uM; assay type: ADME
[12] = target: CYP2C9 (Homo sapiens, UniProt P11712); assay: Inhibition of CYP2C9 (unknown origin) at 10 uM; assay type: ADME
[13] = target: Dual specificity calcium/calmodulin-dependent 3',5'-cyclic nucleotide phosphodiesterase 1A (Homo sapiens, UniProt P54750); assay: Inhibition of PDE1A1 (unknown origin) using fluorescently labeled cAMP substrate by fluorescence polarization assay
[14] = target: cGMP-dependent 3',5'-cyclic phosphodiesterase (Homo sapiens, UniProt O00408); assay: Inhibition of PDE2A1 (unknown origin) using fluorescently labeled cAMP substrate by fluorescence polarization assay
[15] = target: cGMP-inhibited 3',5'-cyclic phosphodiesterase 3A (Homo sapiens, UniProt Q14432); assay: Inhibition of PDE3A (unknown origin) using fluorescently labeled cAMP substrate by fluorescence polarization assay
[16] = target: 3',5'-cyclic-AMP phosphodiesterase 4A (Homo sapiens, UniProt P27815); assay: Inhibition of PDE4A1 (unknown origin) using fluorescently labeled cAMP substrate by fluorescence polarization assay
[17] = target: T1, cGMP-specific 3',5'-cyclic phosphodiesterase; assay: Inhibition of PDE5A1 (unknown origin)
[18] = target: Cone cGMP-specific 3',5'-cyclic phosphodiesterase subunit alpha' (Homo sapiens, UniProt P51160); assay: Inhibition of PDE6C (unknown origin)
[19] = target: High affinity 3',5'-cyclic-AMP phosphodiesterase 7A (Homo sapiens, UniProt Q13946); assay: Inhibition of GST-tagged recombinant human PDE7A1
[20] = target: High affinity cAMP-specific and IBMX-insensitive 3',5'-cyclic phosphodiesterase 8A (Homo sapiens, UniProt O60658); assay: Inhibition of GST-tagged recombinant human PDE8A1
[21] = target: High affinity cGMP-specific 3',5'-cyclic phosphodiesterase 9A (Homo sapiens, UniProt O76083); assay: Inhibition of GST-tagged recombinant human PDE9A2
[22] = target: cAMP and cAMP-inhibited cGMP 3',5'-cyclic phosphodiesterase 10A (Homo sapiens, UniProt Q9Y233); assay: Inhibition of PDE10A1 (unknown origin) using fluorescently labeled cAMP substrate by fluorescence polarization assay
[23] = target: Dual 3',5'-cyclic-AMP and -GMP phosphodiesterase 11A (Homo sapiens, UniProt Q9HCR9); assay: Inhibition of GST-tagged recombinant human PDE11A4
[24] = Solubility in simulated gastric fluid; assay type: ADME, Stomach
[25] = Solubility in water; assay type: physicochemical
[26] = Solubility in PBS; assay type: physicochemical
[27] = Solubility in simulated intestinal fluid; assay type: ADME
[28] = Passive permeability across apical to basolateral side in human Caco2 cells; assay type: ADME, cell-based
[29] = Passive permeability across basolateral to apical side in human Caco2 cells; assay type: ADME, cell-based; conditions: Caco-2, read-out: permeability
[30] = Fraction unbound in whole blood (unknown origin); assay type: ADME, tissue-based
[31] = Lipophilicity, log P of the compound; assay type: physicochemical; conditions: octanol/water
[32] = Lipophilicity, log D of the compound; assay type: physicochemical; conditions: octanol/water
[33] = Dissociation constant, pKa of the compound; assay type: physicochemical
[34] = Plasma protein binding (unknown origin); assay type: ADME, cell-free; conditions: read-out: PPB (converted)
[35] = Metabolic stability in mouse liver microsomes assessed as metabolized drug; assay type: ADME; conditions: read-out: Drug metabolism
[36] = Half life in Swiss mouse at 10 mg/kg, po; assay type: ADME, organism-based; parameters: dose 10 mg/kg, route oral; conditions: in vivo
[37] = Cmax in Balbc mouse at 1 mg/kg, iv; assay type: ADME, organism-based; parameters: dose 1 mg/kg, route intravenous; conditions: in vivo
[38] = Cmax in Balbc mouse at 1 mg/kg, ip; assay type: ADME, organism-based; parameters: dose 1 mg/kg, route intraperitoneal; conditions: in vivo
[39] = Cmax in Swiss mouse at 10 mg/kg, po; assay type: ADME, organism-based; parameters: dose 10 mg/kg, route oral; conditions: in vivo
[40] = Tmax in Balbc mouse at 1 mg/kg, ip; assay type: ADME, organism-based; parameters: dose 1 mg/kg, route intraperitoneal; conditions: in vivo
[41] = Tmax in Swiss mouse at 10 mg/kg, po; assay type: ADME, organism-based; parameters: dose 10 mg/kg, route oral; conditions: in vivo
[42] = test system: Plasma; assay: Initial plasma concentration in Swiss mouse at 10 mg/kg, po; assay type: ADME, organism-based; parameters: dose 10 mg/kg, route oral; conditions: in vivo
[43] = AUC (0 to time) in Balbc mouse at 1 mg/kg, iv; assay type: ADME, organism-based; parameters: dose 1 mg/kg, route intravenous; conditions: plasma
[44] = in vitro; conditions: human, Caco-2
[45] = test system: Oryctolagus cuniculus; assay: Induction of penile erection in conscious rabbit model assessed as area under curve of length of uncovered penile mucosa at 3 mg/kg, iv into ear vain

Sequence of High affinity 3',5'-cyclic-AMP phosphodiesterase 7A (Q13946 whole entry): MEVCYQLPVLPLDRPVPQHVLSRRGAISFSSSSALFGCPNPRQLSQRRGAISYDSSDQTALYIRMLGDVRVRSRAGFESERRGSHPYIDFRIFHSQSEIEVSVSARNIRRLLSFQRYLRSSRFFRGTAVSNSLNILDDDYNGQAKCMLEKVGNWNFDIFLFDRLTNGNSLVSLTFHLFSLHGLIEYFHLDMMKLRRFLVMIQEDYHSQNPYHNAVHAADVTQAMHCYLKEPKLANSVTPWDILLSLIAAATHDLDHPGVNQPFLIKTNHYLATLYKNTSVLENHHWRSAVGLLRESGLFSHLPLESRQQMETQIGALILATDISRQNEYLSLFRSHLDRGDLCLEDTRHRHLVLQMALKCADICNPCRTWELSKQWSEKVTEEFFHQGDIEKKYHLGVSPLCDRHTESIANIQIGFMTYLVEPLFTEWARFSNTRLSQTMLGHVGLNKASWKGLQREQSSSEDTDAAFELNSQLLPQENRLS
Sequence of Dual specificity calcium/calmodulin-dependent 3',5'-cyclic nucleotide phosphodiesterase 1A (P54750 whole entry): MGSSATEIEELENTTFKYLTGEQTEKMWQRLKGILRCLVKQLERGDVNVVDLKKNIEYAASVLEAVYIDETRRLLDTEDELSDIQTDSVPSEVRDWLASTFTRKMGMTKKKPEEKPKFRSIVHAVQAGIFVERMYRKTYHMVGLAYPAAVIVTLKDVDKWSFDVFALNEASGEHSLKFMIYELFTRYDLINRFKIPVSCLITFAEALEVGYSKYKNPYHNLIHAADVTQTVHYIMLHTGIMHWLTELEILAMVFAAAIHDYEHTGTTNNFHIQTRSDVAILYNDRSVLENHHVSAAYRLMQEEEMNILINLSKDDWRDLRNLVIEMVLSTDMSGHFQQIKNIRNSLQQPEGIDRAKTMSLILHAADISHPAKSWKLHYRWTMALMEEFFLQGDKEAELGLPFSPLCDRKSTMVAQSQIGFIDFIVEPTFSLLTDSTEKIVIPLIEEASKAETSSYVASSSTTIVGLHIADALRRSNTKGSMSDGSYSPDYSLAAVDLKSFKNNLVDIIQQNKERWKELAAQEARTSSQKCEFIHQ
Sequence of High affinity cAMP-specific and IBMX-insensitive 3',5'-cyclic phosphodiesterase 8A (O60658 whole entry): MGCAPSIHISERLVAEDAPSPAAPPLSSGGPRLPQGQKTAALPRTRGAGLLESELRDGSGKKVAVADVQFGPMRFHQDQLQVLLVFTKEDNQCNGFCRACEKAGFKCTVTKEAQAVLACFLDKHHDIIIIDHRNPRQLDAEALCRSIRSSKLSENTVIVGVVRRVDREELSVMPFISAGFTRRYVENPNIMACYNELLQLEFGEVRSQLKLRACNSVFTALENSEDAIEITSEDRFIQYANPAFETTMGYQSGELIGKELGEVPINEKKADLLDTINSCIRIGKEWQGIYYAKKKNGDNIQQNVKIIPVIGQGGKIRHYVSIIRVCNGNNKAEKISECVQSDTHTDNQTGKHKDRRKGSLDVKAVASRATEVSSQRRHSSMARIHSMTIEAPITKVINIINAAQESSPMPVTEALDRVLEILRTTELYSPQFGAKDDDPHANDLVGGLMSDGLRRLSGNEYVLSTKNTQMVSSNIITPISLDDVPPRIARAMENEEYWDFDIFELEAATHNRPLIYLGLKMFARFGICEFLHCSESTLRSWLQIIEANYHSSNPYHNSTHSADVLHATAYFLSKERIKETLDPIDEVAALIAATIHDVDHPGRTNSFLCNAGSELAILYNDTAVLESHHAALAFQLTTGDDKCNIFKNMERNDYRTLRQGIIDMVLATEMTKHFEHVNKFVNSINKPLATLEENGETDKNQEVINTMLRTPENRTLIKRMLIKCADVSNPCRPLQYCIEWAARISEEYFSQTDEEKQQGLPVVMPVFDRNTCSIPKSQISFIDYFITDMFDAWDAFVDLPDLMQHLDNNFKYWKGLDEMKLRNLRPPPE
Sequence of Cone cGMP-specific 3',5'-cyclic phosphodiesterase subunit alpha' (P51160 whole entry): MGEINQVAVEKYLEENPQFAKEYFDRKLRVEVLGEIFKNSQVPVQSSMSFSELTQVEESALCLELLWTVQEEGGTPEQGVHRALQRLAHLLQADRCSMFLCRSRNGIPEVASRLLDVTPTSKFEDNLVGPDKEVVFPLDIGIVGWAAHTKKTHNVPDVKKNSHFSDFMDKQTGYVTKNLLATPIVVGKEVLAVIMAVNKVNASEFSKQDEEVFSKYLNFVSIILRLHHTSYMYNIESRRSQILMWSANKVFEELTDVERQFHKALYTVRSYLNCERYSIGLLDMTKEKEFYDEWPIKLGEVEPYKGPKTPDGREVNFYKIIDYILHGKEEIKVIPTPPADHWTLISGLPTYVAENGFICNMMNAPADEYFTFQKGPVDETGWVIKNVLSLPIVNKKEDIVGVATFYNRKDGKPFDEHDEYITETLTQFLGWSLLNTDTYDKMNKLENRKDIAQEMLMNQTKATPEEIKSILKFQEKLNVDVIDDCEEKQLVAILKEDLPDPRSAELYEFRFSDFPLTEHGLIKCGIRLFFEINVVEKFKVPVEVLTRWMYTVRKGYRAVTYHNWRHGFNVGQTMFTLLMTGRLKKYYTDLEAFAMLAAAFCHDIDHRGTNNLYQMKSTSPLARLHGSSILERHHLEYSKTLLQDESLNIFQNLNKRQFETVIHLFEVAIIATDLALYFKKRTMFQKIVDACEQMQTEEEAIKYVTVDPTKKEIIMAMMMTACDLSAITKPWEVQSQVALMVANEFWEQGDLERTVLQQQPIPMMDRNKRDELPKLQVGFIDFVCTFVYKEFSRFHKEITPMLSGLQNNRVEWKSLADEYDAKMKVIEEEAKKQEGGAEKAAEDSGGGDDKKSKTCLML
Sequence of cGMP-inhibited 3',5'-cyclic phosphodiesterase 3A (Q14432 whole entry): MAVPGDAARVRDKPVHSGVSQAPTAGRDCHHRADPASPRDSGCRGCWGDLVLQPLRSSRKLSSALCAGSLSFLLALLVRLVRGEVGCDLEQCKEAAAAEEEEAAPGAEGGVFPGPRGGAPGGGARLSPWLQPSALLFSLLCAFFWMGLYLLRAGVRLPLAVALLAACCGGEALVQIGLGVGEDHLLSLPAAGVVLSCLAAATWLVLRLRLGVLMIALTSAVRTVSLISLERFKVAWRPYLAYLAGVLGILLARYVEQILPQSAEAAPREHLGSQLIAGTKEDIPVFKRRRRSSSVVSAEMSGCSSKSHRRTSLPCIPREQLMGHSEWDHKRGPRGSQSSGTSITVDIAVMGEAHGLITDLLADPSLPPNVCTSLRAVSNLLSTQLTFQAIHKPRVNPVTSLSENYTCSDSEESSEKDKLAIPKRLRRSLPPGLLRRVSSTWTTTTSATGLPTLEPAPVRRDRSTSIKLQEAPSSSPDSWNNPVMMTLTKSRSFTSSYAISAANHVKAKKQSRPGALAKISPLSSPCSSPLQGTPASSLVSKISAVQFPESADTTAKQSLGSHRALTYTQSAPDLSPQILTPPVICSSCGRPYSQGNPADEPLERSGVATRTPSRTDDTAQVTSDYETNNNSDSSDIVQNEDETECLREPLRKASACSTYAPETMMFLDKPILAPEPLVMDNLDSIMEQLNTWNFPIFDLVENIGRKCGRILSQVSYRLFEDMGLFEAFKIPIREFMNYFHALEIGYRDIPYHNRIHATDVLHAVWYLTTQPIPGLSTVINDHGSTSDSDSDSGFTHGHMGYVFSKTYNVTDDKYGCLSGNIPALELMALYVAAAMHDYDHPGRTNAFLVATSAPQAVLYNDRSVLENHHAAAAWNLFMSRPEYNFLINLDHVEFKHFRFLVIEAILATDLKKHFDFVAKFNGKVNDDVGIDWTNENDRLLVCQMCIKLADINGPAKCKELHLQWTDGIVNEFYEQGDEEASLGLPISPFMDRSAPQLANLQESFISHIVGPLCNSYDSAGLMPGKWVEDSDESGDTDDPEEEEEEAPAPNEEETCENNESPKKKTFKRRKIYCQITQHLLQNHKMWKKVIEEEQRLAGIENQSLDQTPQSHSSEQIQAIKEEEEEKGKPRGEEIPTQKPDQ
Sequence of 3',5'-cyclic-AMP phosphodiesterase 4A (P27815 whole entry): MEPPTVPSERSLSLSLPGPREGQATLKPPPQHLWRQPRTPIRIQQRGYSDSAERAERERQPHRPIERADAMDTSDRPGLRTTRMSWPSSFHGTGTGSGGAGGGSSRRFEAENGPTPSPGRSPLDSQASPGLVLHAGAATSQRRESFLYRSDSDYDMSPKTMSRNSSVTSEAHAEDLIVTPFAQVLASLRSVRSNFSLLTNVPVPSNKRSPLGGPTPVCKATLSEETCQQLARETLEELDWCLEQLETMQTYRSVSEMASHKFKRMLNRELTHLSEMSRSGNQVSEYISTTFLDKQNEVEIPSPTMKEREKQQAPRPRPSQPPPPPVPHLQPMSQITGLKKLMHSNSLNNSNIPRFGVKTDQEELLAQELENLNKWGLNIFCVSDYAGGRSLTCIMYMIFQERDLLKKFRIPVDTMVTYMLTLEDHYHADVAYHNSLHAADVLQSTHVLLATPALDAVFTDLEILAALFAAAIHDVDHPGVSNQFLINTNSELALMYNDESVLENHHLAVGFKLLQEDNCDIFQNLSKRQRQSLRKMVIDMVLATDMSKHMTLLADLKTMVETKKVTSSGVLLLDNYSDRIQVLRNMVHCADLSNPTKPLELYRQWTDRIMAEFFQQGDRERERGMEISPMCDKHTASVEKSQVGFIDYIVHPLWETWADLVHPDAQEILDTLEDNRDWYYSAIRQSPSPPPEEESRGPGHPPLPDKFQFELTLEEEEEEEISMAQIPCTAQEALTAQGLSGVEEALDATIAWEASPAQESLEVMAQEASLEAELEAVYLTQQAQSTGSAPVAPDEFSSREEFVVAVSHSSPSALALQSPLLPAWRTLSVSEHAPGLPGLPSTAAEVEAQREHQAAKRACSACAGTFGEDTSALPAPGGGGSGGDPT

Compound: CCCc1nn(C)c2c(=O)[nH]c(-c3cc(S(=O)(=O)NCCN4CCOCC4)ccc3OCC)nc12
IC50 [1]: 1.6 nM

Compound: CCCCCCCNS(=O)(=O)c1ccc(OCC)c(-c2nc3c(CCC)nn(C)c3c(=O)[nH]2)c1
IC50 [1]: 3.9 nM

Compound: CCCc1nn(C)c2c(=O)[nH]c(-c3cc(S(=O)(=O)NCCCCCCO)ccc3OCC)nc12
AUC [2]: 69.4 ng·h/mL
AUC [3]: 134 ng·h/mL
AUC(0-inf) [4]: 81.8 ng·h/mL
AUC(0-inf) [5]: 71 ng·h/mL
AUC(0-inf) [6]: 156 ng·h/mL
CL/F [7]: 204 mL/min/kg
CL/F [8]: 1070 mL/min/kg
Vd/F [9]: 1.65 L/kg
Vd/F [10]: 76.8 L/kg
inhibition at 10 µM [11]: 50%
inhibition at 10 µM [12]: 56%
IC50 [13]: 62 nM
IC50 [14]: 560 nM
IC50 [15]: > 10000 nM
IC50 [16]: 3700 nM
IC50 [17]: 1.5 nM
IC50 [18]: 5.2 nM
IC50 ([19]; read-out: IC50): > 10000 nM
IC50 [20]: > 10000 nM
IC50 [21]: 3800 nM
IC50 [22]: 2000 nM
IC50 [23]: 1400 nM
solubility [24]: 80 µM (≈ 39.3 µg/mL)
solubility [25]: 20 µM (≈ 9.83 µg/mL)
solubility [26]: 20 µM (≈ 9.83 µg/mL)
solubility [27]: 10 µM (≈ 4.92 µg/mL)
Papp A→B ([28]; Caco-2, read-out: permeability): 9.1 ×10⁻⁶ cm/s
Papp B→A [29]: 54.4 ×10⁻⁶ cm/s
fraction unbound [30]: 0.023
logP [31]: 2.73
logD [32]: 2.73
pKa [33]: 5.22
fraction unbound [34]: 0.023
metabolised [35]: > 95%
half-life [36]: 48 min
Cmax [37]: 221 ng/mL
Cmax [38]: 105 ng/mL
Cmax [39]: 380 ng/mL
Tmax [40]: 30 min
Tmax [41]: 4.98 min
C0 [42]: 556 ng/mL
AUC [43]: 80 ng·h/mL
IC50 [1]: 1.5 nM
efflux ratio [44]: 6
AUC [45]: 432

Compound: CCCc1nn(C)c2c(=O)[nH]c(-c3cc(S(=O)(=O)NCCCN4CCOCC4)ccc3OCC)nc12
IC50 [1]: 2.6 nM

Compound: CCCc1nn(C)c2c(=O)[nH]c(-c3cc(S(=O)(=O)NCc4ccc(OC)c(F)c4)ccc3OCC)nc12
IC50 [1]: 3.3 nM

Compound: CCCc1nn(C)c2c(=O)[nH]c(-c3cc(S(=O)(=O)NCCN4CCCCC4)ccc3OCC)nc12
IC50 [1]: 16 nM

Compound: CCCc1nn(C)c2c(=O)[nH]c(-c3cc(S(=O)(=O)NCCc4c[nH]c5ccccc45)ccc3OCC)nc12
IC50 [1]: 13 nM

Compound: CCCc1nn(C)c2c(=O)[nH]c(-c3cc(S(=O)(=O)N4CCN(C)CC4)ccc3OCC)nc12
IC50 [13]: 600 nM
IC50 [19]: 22000 nM
permeability ([28]; Caco-2): 37.9 ×10⁻⁶ cm/s
Papp B→A [29]: 45.5 ×10⁻⁶ cm/s
fraction unbound [30]: 0.066
logP [31]: 2.58
logD [32]: 2.69
pKa [33]: 4.86
fraction unbound [34]: 0.04
metabolised [35]: 90%
AUC [45]: 305

Other lines, results leading:

IC50 [1]: 14 nM
Compound: CCCc1nn(C)c2c(=O)[nH]c(-c3cc(S(=O)(=O)NCCCN(C)C)ccc3OCC)nc12

IC50 [1]: 3.4 nM
Compound: CCCc1nn(C)c2c(=O)[nH]c(-c3cc(S(=O)(=O)NCCCO)ccc3OCC)nc12

IC50 [1]: 12 nM
Compound: CCCCCCNS(=O)(=O)c1ccc(OCC)c(-c2nc3c(CCC)nn(C)c3c(=O)[nH]2)c1

IC50 [1]: 1.9 nM
Compound: CCCc1nn(C)c2c(=O)[nH]c(-c3cc(S(=O)(=O)NCCCCO)ccc3OCC)nc12

IC50 [1]: 32 nM
Compound: CCCc1nn(C)c2c(=O)[nH]c(-c3cc(S(=O)(=O)NCCN(CC)CC)ccc3OCC)nc12

IC50 [1]: 1.7 nM
Compound: CCCc1nn(C)c2c(=O)[nH]c(-c3cc(S(=O)(=O)NCCCCCO)ccc3OCC)nc12
